Laboratory results published in US5310762A, “Medicaments” (Burroughs Wellcome Co., priority 1988, dated 1994).

Key:
Pneumocystis carinii = assay: Activity against Pneumocystis carinii: treatment of latent infection in dexamethasone-treated rats; type: in vivo; settings: weeks 5-7; for SCORE 2 (number of rats): 2+: focal areas of pneumonitis surrounded by 10 to 25 h.p.f. of normal lung; for SCORE 3 (number of rats): 3+: lung diffusely and extensively involved; for SCORE 4 (number of rats): score 4 not defined; for SCORE 0 (number of rats): score none: no organism seen; for SCORE 1 (number of rats): 1+: cysts sparsely distributed, less than one per 25 h.p.f.
Experimental: Groups of 10 rats were treated with dexamethasone to allow latent Pneumocystis carinii infection to develop. Tetracycline was also administered to protect against bacterial infections. […] In parallel with each test compound, Celacol was administered to one group of rats (also treated with dexamethasone and tetracycline) as a control. At the end of the test period the animals were sacrificed and autopsies carried out. The lungs were removed and the right lung bisected. An imprint was made onto microscope slides and stained with toluidine blue. One half of the lung was placed in formalin, processed in paraffin blocks, sectioned and stained by the Gomori methanamine silver nitrate method. After autopsy the extent of P. carinii pneumonitis was scored under coded study as none if no organism seen; 1+ if P. carinii cysts seen sparsely distributed with less than one per 25 high power field (h.p.f.); 2+ if focal areas of P. carinii pneumonitis surrounded by 10 to 25 h.p.f. of normal lung and 3+ if lung diffusely and extensively involved with organisms in almost all h.p.f.s.

Water-solubility = type: physicochemical; settings: as compared with the corresponding compound wherein R13 is hydroxy
[1] = human, in vivo; cited from earlier work
[2] = system: Pneumocystis carinii pneumonia; settings: AIDS patients; Wofsy, Antimicrobial Agents Annual 1986; cited from earlier work

Row | Compound | % INFECTED (Pneumocystis carinii; 25 mg/kg/day oral) [%] | NO. INFECTED/NO. EXAMINED (Pneumocystis carinii; 25 mg/kg/day oral) | SCORE 2 (number of rats) (Pneumocystis carinii; 25 mg/kg/day oral) | SCORE 3 (number of rats) (Pneumocystis carinii; 25 mg/kg/day oral) | SCORE 4 (number of rats) (Pneumocystis carinii; 25 mg/kg/day oral) | SCORE 0 (number of rats) (Pneumocystis carinii; 25 mg/kg/day oral) | % INFECTED (Pneumocystis carinii; 50 mg/kg/day oral) [%] | NO. INFECTED/NO. EXAMINED (Pneumocystis carinii; 50 mg/kg/day oral) | SCORE 1 (number of rats) (Pneumocystis carinii; 50 mg/kg/day oral) | SCORE 2 (number of rats) (Pneumocystis carinii; 50 mg/kg/day oral) | SCORE 3 (number of rats) (Pneumocystis carinii; 50 mg/kg/day oral) | SCORE 4 (number of rats) (Pneumocystis carinii; 50 mg/kg/day oral) | SCORE 0 (number of rats) (Pneumocystis carinii; 50 mg/kg/day oral) | % INFECTED (Pneumocystis carinii; 100 mg/kg/day oral) [%] | NO. INFECTED/NO. EXAMINED (Pneumocystis carinii; 100 mg/kg/day oral) | SCORE 1 (number of rats) (Pneumocystis carinii; 100 mg/kg/day oral) | SCORE 2 (number of rats) (Pneumocystis carinii; 100 mg/kg/day oral) | SCORE 3 (number of rats) (Pneumocystis carinii; 100 mg/kg/day oral) | SCORE 4 (number of rats) (Pneumocystis carinii; 100 mg/kg/day oral) | SCORE 0 (number of rats) (Pneumocystis carinii; 100 mg/kg/day oral) | further results
1 | O=C1C(Cl)=C(C2CCC(c3ccc(Cl)cc3)CC2)C(=O)c2ccccc21 (stereo not shown) [A, 2-[4-(4-chlorophenyl)cyclohexyl]-3-chloro-1,4-naphthoquinone] | 100 | 14/14 | 6 | 3 | 0 | 0 | 100 | 15/15 | 8 | 5 | 2 | 0 | 0 | 73 | 11/15 | 6 | 4 | 1 | 0 | 4 | SCORE 1 (number of rats) (Pneumocystis carinii; oral): 5
2 | CC(C)(C)C1CCC(CC2=C(O)C(=O)c3ccccc3C2=O)CC1 (stereo not shown) [C, 2-(4-t-butylcyclohexylmethyl)-3-hydroxy-1,4-naphthoquinone] | 93 | 13/14 | 2 | 4 | 4 | 1 | 100 | 14/14 | 2 | 6 | 4 | 2 | 0 | 92 | 12/13 | 4 | 2 | 6 | 0 | 1 | SCORE 1 (number of rats) (Pneumocystis carinii; oral): 3
3 | CC(C)(C)C1CCC(C2=C(O)C(=O)c3ccccc3C2=O)CC1 (stereo not shown) [Compound B, 2-(4-t-butylcyclohexyl)-3-hydroxy-1,4-naphthoquinone] | 100 | 15/15 | 7 | 1 | 0 | 0 | 93 | 13/14 | 8 | 4 | 1 | 0 | 1 | 80 | 12/15 | 8 | 3 | 0 | 1 | 3 | SCORE 1 (number of rats) (Pneumocystis carinii; oral): 7
4 | CC(=O)OC1=C([C@H]2CC[C@H](c3ccc(Cl)cc3)CC2)C(=O)c2ccccc2C1=O [Example 5, 2-Acetoxy-3-[trans-4-(4-chlorophenyl)cyclohexyl]-1,4-naphthoquinone] | – | – | – | – | – | – | – | – | – | – | – | – | – | – | – | – | – | – | – | – | water-solubility (Water-solubility): improved water-solubility
5 | N=C(N)c1ccc(OCCCCCOc2ccc(C(=N)N)cc2)cc1 [pentamidine] | – | – | – | – | – | – | – | – | – | – | – | – | – | – | – | – | – | – | – | – | incidence of adverse reactions [1]: around 50%; % effective [2]: 50-70%
6 | trimethoprim-sulphamethoxazole | – | – | – | – | – | – | – | – | – | – | – | – | – | – | – | – | – | – | – | – | % effective [2]: 50-70%
